{"source": "patent US9078446B2", "about": "“Use of N-(tetrazol-4-yl)- or N-(triazol-3-yl)arylcarboxamides or their salts for controlling unwanted plants in areas of transgenic crop plants being tolerant to HPPD inhibitor herbicides” (BAYER INTELLECTUAL PROPERTY GMBH, priority 2011, dated 2015)", "assay_type_in_all_cases": "in vivo", "key": {"[1]": {"test_system": "transgenic tobacco plants expressing mutant Pseudomonas fluorescens HPPD G336W (PfHPPD-G336W)", "test": "Symptoms due to herbicide application on transgenic tobacco plants (damage classes 0-3)", "settings": "PfHPPD-G336W line 646; 25 g Al/ha; one week after application", "outline": "(§1)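 Tobacco transformed via pBin19 with the HPPD gene under CaMV35S, fused to an N-terminal chloroplast transit peptide. T1 plants, potted at 3 weeks and grown 2 more weeks, sprayed with N-(tetrazol-4-yl)/N-(triazol-3-yl)arylcarboxamides (g AI/ha) on 8–10 plants from 1–3 events per transgene. Damage scored 0 (none) to 3 (very strong), versus non-transformed plants.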"}, "[2]": {"test_system": "transgenic tobacco plants expressing HPPD from Blepharisma japonicum (FMP37)", "test": "Symptoms due to herbicide application on transgenic tobacco plants (damage classes 0-3)", "settings": "25 g Al/ha, one week after application", "outline": "as §1"}, "[3]": {"test_system": "transgenic tobacco plants expressing Avena HPPD (AvHPPD)", "test": "Symptoms due to herbicide application on transgenic tobacco plants (damage classes 0-3)", "settings": "25 g Al/ha, one week after application", "outline": "as §1"}, "[4]": {"test_system": "transgenic tobacco plants expressing HPPD from Kordia algicida FMP27", "test": "Symptoms due to herbicide application on transgenic tobacco plants (damage classes 0-3)", "settings": "25 g Al/ha, one week after application", "outline": "as §1"}, "[5]": {"test_system": "transgenic tobacco plants expressing tolerant HPPD enzymes", "test": "Tolerance of tobacco plants expressing tolerant HPPD enzymes (all transgenes)", "outline": "as §1"}, "[6]": {"test_system": "non-transformed tobacco plants (Wt)", "test": "Symptoms due to herbicide application on tobacco plants (damage classes 0-3)", "settings": "25 g Al/ha, one week after application", "outline": "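Tobacco plants grown two weeks in single pots after transfer, then sprayed with herbicides at rates in g active ingredient/ha, 8 to 10 plants per group. Symptoms scored on a 0–3 scale: 0 none, 1 light and transient, 2 strong, 3 very strong damage.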"}}, "data": [{"smiles": "Cc1c(C(=O)Nc2nnnn2C)ccc(C(F)(F)F)c1S(C)(=O)=O", "note": "[Compound 4-137]", "values": [{"measurement": "number of plants with Damage 0 (No damage)", "setting": "[1]", "value": 5}, {"measurement": "number of plants with Damage 1 (Light and transient damage)", "setting": "[1]", "value": 2}, {"measurement": "number of plants with Damage 2 (Strong damage)", "setting": "[1]", "value": 0}, {"measurement": "number of plants with Damage 3 (Very strong damage)", "setting": "[1]", "value": 3}, {"measurement": "number of plants with Damage 0 (No damage)", "setting": "[2]; FMP37 line 749", "value": 8}, {"measurement": "number of plants with Damage 1 (Light and transient damage)", "setting": "[2]; FMP37 line 749", "value": 2}, {"measurement": "number of plants with Damage 2 (Strong damage)", "setting": "[2]; FMP37 line 749", "value": 0}, {"measurement": "number of plants with Damage 3 (Very strong damage)", "setting": "[2]; FMP37 line 749", "value": 0}, {"measurement": "number of plants with Damage 0 (No damage)", "setting": "[2]; FMP37 line 754", "value": 0}, {"measurement": "number of plants with Damage 1 (Light and transient damage)", "setting": "[2]; FMP37 line 754", "value": 1}, {"measurement": "number of plants with Damage 2 (Strong damage)", "setting": "[2]; FMP37 line 754", "value": 1}, {"measurement": "number of plants with Damage 3 (Very strong damage)", "setting": "[2]; FMP37 line 754", "value": 8}, {"measurement": "number of plants with Damage 0 (No damage)", "setting": "[2]; FMP37 line 795", "value": 2}, {"measurement": "number of plants with Damage 1 (Light and transient damage)", "setting": "[2]; FMP37 line 795", "value": 0}, {"measurement": "number of plants with Damage 2 (Strong damage)", "setting": "[2]; FMP37 line 795", "value": 2}, {"measurement": "number of plants with Damage 3 (Very strong damage)", "setting": "[2]; FMP37 line 795", "value": 6}, {"measurement": "number of plants with Damage 0 (No damage)", "setting": "[3]; AvHPPD line 656", "value": 3}, {"measurement": "number of plants with Damage 1 (Light and transient damage)", "setting": "[3]; AvHPPD line 656", "value": 1}, {"measurement": "number of plants with Damage 2 (Strong damage)", "setting": "[3]; AvHPPD line 656", "value": 1}, {"measurement": "number of plants with Damage 3 (Very strong damage)", "setting": "[3]; AvHPPD line 656", "value": 5}, {"measurement": "number of plants with Damage 0 (No damage)", "setting": "[3]; AvHPPD line 659", "value": 3}, {"measurement": "number of plants with Damage 1 (Light and transient damage)", "setting": "[3]; AvHPPD line 659", "value": 3}, {"measurement": "number of plants with Damage 2 (Strong damage)", "setting": "[3]; AvHPPD line 659", "value": 0}, {"measurement": "number of plants with Damage 3 (Very strong damage)", "setting": "[3]; AvHPPD line 659", "value": 4}, {"measurement": "number of plants with Damage 0 (No damage)", "setting": "[3]; AvHPPD line 699", "value": 1}, {"measurement": "number of plants with Damage 1 (Light and transient damage)", "setting": "[3]; AvHPPD line 699", "value": 2}, {"measurement": "number of plants with Damage 2 (Strong damage)", "setting": "[3]; AvHPPD line 699", "value": 0}, {"measurement": "number of plants with Damage 3 (Very strong damage)", "setting": "[3]; AvHPPD line 699", "value": 7}, {"measurement": "number of plants with Damage 0 (No damage)", "setting": "[4]; FMP27 line 733", "value": 4}, {"measurement": "number of plants with Damage 1 (Light and transient damage)", "setting": "[4]; FMP27 line 733", "value": 0}, {"measurement": "number of plants with Damage 2 (Strong damage)", "setting": "[4]; FMP27 line 733", "value": 1}, {"measurement": "number of plants with Damage 3 (Very strong damage)", "setting": "[4]; FMP27 line 733", "value": 5}, {"measurement": "number of plants with Damage 0 (No damage)", "setting": "[4]; FMP27 line 734", "value": 5}, {"measurement": "number of plants with Damage 1 (Light and transient damage)", "setting": "[4]; FMP27 line 734", "value": 2}, {"measurement": "number of plants with Damage 2 (Strong damage)", "setting": "[4]; FMP27 line 734", "value": 0}, {"measurement": "number of plants with Damage 3 (Very strong damage)", "setting": "[4]; FMP27 line 734", "value": 3}, {"measurement": "number of plants with Damage 0 (No damage)", "setting": "[4]; FMP27 line 735", "value": 3}, {"measurement": "number of plants with Damage 1 (Light and transient damage)", "setting": "[4]; FMP27 line 735", "value": 0}, {"measurement": "number of plants with Damage 2 (Strong damage)", "setting": "[4]; FMP27 line 735", "value": 4}, {"measurement": "number of plants with Damage 3 (Very strong damage)", "setting": "[4]; FMP27 line 735", "value": 3}, {"measurement": "tolerance of the transgenic tobacco plants (symptoms due to application of the herbicide)", "setting": "[5]; T1 plants sprayed, evaluated one week after application", "value": "good tolerance"}, {"measurement": "sensitivity of transgenic tobacco plants compared to wild type (wt) plants", "setting": "[5]; all tested independent lines, agronomically relevant dose", "value": "less sensitive"}, {"measurement": "number of plants with Damage 0 (No damage)", "setting": "[6]", "value": 0}, {"measurement": "number of plants with Damage 1 (Light and transient damage)", "setting": "[6]", "value": 0}, {"measurement": "number of plants with Damage 2 (Strong damage)", "setting": "[6]", "value": 0}, {"measurement": "number of plants with Damage 3 (Very strong damage)", "setting": "[6]", "value": 10}]}]}
